In US20030157516A1, “G protein coupled receptor” (priority 2000, published 2003):
Like-named read-outs stand apart in the source and are kept apart here.

What was measured:
Assay type in all cases: cell-based
rat adenine binding GPCR = target: T1, rat adenine binding GPCR (Rattus norvegicus, UniProt Q7TN49); assay: Intracellular Ca2+ measurements (FLIPR) on permanently transfected CHO cells, clone 28; set-up: The full length reading frame was inserted into the mammalian expression vector pcDNA3; expressed in transfected cells
T1 sequence (Q7TN49 1-304): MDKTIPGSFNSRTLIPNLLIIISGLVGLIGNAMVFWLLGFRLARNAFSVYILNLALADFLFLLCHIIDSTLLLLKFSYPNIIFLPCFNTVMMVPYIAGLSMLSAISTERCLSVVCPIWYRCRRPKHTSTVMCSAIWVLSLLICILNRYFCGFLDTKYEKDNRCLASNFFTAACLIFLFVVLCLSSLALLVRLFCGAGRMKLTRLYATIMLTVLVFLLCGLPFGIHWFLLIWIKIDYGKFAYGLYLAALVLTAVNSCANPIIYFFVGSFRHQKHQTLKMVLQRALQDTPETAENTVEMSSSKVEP
Protocol: Finally, measurements of intracellular Ca^2+ were performed on the best functionally coupled CHO cell line, clone 28. The effect of Na-butyrate pre-treatment was investigated using a dose response curve of adenine.
a) Methods—Two days before the experiment the cells were seeded out in a 96 well plate at a density required for approximately 90% cell confluence at the day of the experiment. Compounds were diluted in calcium buffer (5 mM HEPES/NaOH, pH 7.4, 140 mM NaCl, 1 mM MgCl2, 5 mM KCl, 10 mM glucose, 1.25 mM CaCl2, 2.5 mM probenecid, pH 7.4), twice their final concentrations. For basal values, calcium buffer was applied and for the maximum response, 10 μM ionomycin was used. The growth medium was removed and the cells were loaded in serum-free growth medium supplemented with probenecid (5 mM), the indicator Fluo-3 (2 μM), 20 mM HEPES/NaOH, pH, 7.4 and 0.1% BSA in the incubator at 37° C. After 60 minutes incubation, the cells were washed 3 times with the calcium buffer. 100 μl of the diluted compounds was transferred to the wells and changes in intracellular calcium levels were measured with the FLIPR® (Fluorometric Imaging Plate Reader, Molecular Devices). Each data point was run in duplicate and the peak of the Ca ^2+-transient was considered as the relevant signal. The sigmoid concentration response curves were analyzed using the GraphPad Prism program.

[1] = target: T2, adenine binding rat receptor (Rattus norvegicus, UniProt Q7TN49); assay: cAMP measurements on CHO cells permanently transfected (clone 28)
T2 construct: expressed in transfected cells; host or cells: CHO cells, transient, lipofectamine PLUS
T2 sequence (Q7TN49 1-304): T1 sequence (Q7TN49 1-304)
Protocol: (§1) For permanently transfected CHO cells, cAMP measurements were performed using the indirect RIA kit from NEN (Belgium).
(§2) a) Methods: Two days before the experiment the cells were seeded out in a 96 well plate at a density required for approximately 90% confluence at the day of the experiment. After removal of the growth medium, the cells were washed twice with a controlled salt solution (CSS) containing 25 mM Tris-HCl, pH 7.4, 120 mM NaCl, 5.4 mM KCl, 0.8 mM MgCl2, 1.8 mM CaCl2, 15 mM glucose and 15 mg/l phenol red, with an addition of a phosphodiesterase inhibitor IBMX (3-isobutyl-1-methylxanthine) in a concentration of 1 mM and […]. Basal cAMP levels were determined in CSS containing these additives and maximally stimulated cAMP levels were determined in the presence of 50 μM forskolin. For testing agonistic activity, the compounds were incubated with the cells for 20 minutes at 37° C. The reaction was stopped by addition of ice cold HClO4 (1N) and stored at −20° C. After thawing the mixtures were neutralized with an equivalent amount of phosphate buffered KOH, left at 4° C. during 30 minutes to allow the salts to precipitate and centrifuged at 2,000 RPM for 5 minutes at 4° C.
(§3) For the quantitative determination of the cAMP levels, a 96-well Flashplate radioimmunoassay kit from NEN was used, according to the protocol of the supplier. The sigmoid concentration response curves (duplicate points) were analyzed using the GraphPad Prism program.

wild type CHO cells [2] = assay: Intracellular Ca2+ measurements (FLIPR) on wild type CHO cells
wild type CHO cells [3] = assay: cAMP measurements on wild type CHO cells; conditions: wild type CHO cells
Protocol: as §1, §2, §3

[4] = clone 28, Na-butyrate treated cells
[5] = clone 28, non-Na-butyrate treated cells

- EC50 (rat adenine binding GPCR; [4]): 14.8 nM
- increase in RFU (rat adenine binding GPCR; [4]): 3 fold
- EC50 (rat adenine binding GPCR; [5]): 72.4 nM
- increase of the basal relative fluorescence units (RFU) (rat adenine binding GPCR; [5]): 1.25 fold
- EC50 ([1]; after Na-butyrate induction, read-out: EC50): 3 nM
- EC50 ([1]; transfected cells (clone 28), 0.5% hiFCS, Na-butyrate induction, read-out: pEC50 (converted)): 2.88 nM
- EC50 ([1]; transfected cells (clone 28), 10% hiFCS, Na-butyrate induction, read-out: pEC50 (converted)): 2.95 nM
Structure (SMILES): Nc1ncnc2nc[nH]c12 [Adenine, adenine]
- intracellular Ca2+ response (wild type CHO cells [2]): did not show any response
- cAMP response (wild type CHO cells [3]): did not show any response
